In a compilation of properties of binary mixtures (doi:10.1016/j.molliq.2017.12.015):

Assay: xn = mol fraction of the nth substance listed
Conditions: 100 kPa

CCOCCO + CCCC[n+]1ccn(C)c1.O=S(=O)([N-]S(=O)(=O)C(F)(F)F)C(F)(F)F
speed of sound [m/s]
Conditions | x2 = 0 | x2 = 0.1036 | x2 = 0.1905 | x2 = 0.2965 | x2 = 0.3882 | x2 = 0.489 | x2 = 0.5889 | x2 = 0.7018 | x2 = 0.7928 | x2 = 0.9071
298.15 K | 1302.8 | 1279.9 | – | – | 1240.5 | 1234.5 | 1231.4 | 1230.7 | – | 1228.3
303.15 K | 1285.1 | 1264.6 | 1246.6 | 1234.2 | – | 1223.9 | 1219.6 | 1219 | 1218.4 | 1217.3
308.15 K | 1267.3 | 1248.9 | 1232.1 | 1220.6 | 1214.5 | 1210.4 | 1207.6 | 1207.2 | 1206.9 | 1206.1
313.15 K | – | 1230.1 | 1217.7 | – | – | 1198 | 1197.7 | 1196.5 | 1196 | 1195
318.15 K | 1232 | 1217.4 | 1203.3 | – | – | 1187.7 | 1186.9 | 1185.9 | – | 1185
323.15 K | 1214.3 | 1201.5 | 1189 | – | 1176.2 | 1175.5 | 1175 | 1174.9 | 1174.3 | 1174

CCCC[n+]1ccn(C)c1.O=S(=O)([N-]S(=O)(=O)C(F)(F)F)C(F)(F)F + CCOCCO
x1 = 1
Conditions | speed of sound [m/s]
298.15 K | 1227.8
303.15 K | 1216.7
308.15 K | 1205.8
313.15 K | 1194.9
318.15 K | 1184.2
323.15 K | 1173.6
